Article PMC11872507, “Lasso peptides sviceucin and siamycin I exhibit anti-virulence activity and restore vancomycin effectiveness in vancomycin-resistant pathogens” (iScience, 2025)
≈ marks a conversion by molar mass, not a printed value.

Key:
[1] = tested on: E. faecalis V583; assay: microbe, parasite or virus in culture; type: cell-based, Enterococcus faecalis
[2] = tested on: E. faecalis JH2-2 08048; assay: microbe, parasite or virus in culture; type: cell-based, Enterococcus faecalis; conditions: Enterococcus faecalis, JH2208048, read-out: Vancomycin MIC
Experimental: (§1) The MIC of vancomycin was determined by the microdilution method described in the guidelines of the European Committee on Antimicrobial Susceptibility Testing (EUCAST 2024, v14.0 Breakpoint Tables).[58] For enterococci, GM17 medium was used instead of CAMH medium since enterococci cannot degrade starch, the main carbohydrate of MH medium. 2-fold serial dilutions of the tested antibiotic were performed to obtain concentrations ranging from 0.5 to 512 μg/mL. LP were then added to the wells at the desired concentration. The medium was inoculated with a final inoculum of 5 × 10^5 CFU/mL. The MIC is the lowest concentration that prevents visible in vitro growth.

[3] = tested on: E. faecium 1 231 410; assay: microbe, parasite or virus in culture; type: cell-based, Enterococcus faecium; conditions: Enterococcus faecium, 1231410, read-out: Vancomycin MIC
[4] = tested on: S. aureus T-SAR12 VRSA.A; assay: microbe, parasite or virus in culture; type: cell-based, Staphylococcus aureus; conditions: Staphylococcus aureus, VRSA, read-out: Vancomycin MIC
Experimental: as §1

[5] = tested on: S. aureus T-SAR12 VRSA.B; assay: microbe, parasite or virus in culture; type: cell-based, Staphylococcus aureus; conditions: Staphylococcus aureus, VRSA, read-out: Vancomycin MIC
Experimental: as §1

[6] = tested on: SiaA; assay: Vancomycin MIC, microdilution; type: cell-based, Enterococcus faecalis
Experimental: as §1
(§2) Resistant clones to sviceucin were selected by plating bacteria on GM17 agar medium supplemented with vancomycin at 32 μg/mL and sviceucin at 10 μM. Growth and MIC of vancomycin and sviceucin of the resistant clones were tested. The selection for siamycin I resistance was done by performing serial passages of bacteria in GM17 medium supplemented with vancomycin 10 μg/mL and increasing concentrations of siamycin I from 0.5 to 5 μM. Single nucleotide polymorphism (SNPs) analysis was performed on the sequenced gDNA of each selected resistant mutant.

[7] = tested on: Svic1; assay: Vancomycin MIC, microdilution; type: cell-based, Enterococcus faecalis
Experimental: as §1, §2

[8] = tested on: Svic1 ΔvanB; assay: Vancomycin MIC, microdilution; type: cell-based; conditions: Enterococcus faecalis; vancomycin alone (control)
[9] = tested on: V583 vanSB^D398E; assay: Vancomycin MIC, microdilution; type: cell-based; conditions: Enterococcus faecalis; vancomycin alone (control)
[10] = tested on: V583 ΔvanSBmalT::vanR^D53E; assay: Vancomycin MIC, microdilution; type: cell-based; conditions: Enterococcus faecalis; vancomycin alone (control); phosphomimetic VanR^D53E
Experimental: as §1

[11] = tested on: V583 ΔvanB::vanA; assay: Vancomycin MIC, microdilution; type: cell-based; conditions: Enterococcus faecalis; vancomycin alone (control)
Experimental: (§3) To further support this, we investigated the origin of the different activity spectra of sviceucin and siamycin I between VanA- and VanB-type vancomycin resistance. We first replaced vanSB by vanS in the VanB-type strain E. faecalis V583. VanS-VanRB strain was sensitive to vancomycin (MIC = 2 μg/mL), probably because of an impaired signal transduction between VanS and VanRB. To bypass this issue, we replaced the vanRBSB-PvanYB fragment by the vanRS-PvanH fragment from a VanA-type operon, resulting in a VanA-type transduction system fused to VanB-type resistance genes.

[12] = tested on: V583 ΔvanSB-vanRB::vanS-vanR; assay: Vancomycin MIC, microdilution; type: cell-based; conditions: Enterococcus faecalis; vancomycin alone (control); VanA-type transduction system, VanB-type resistance genes
Experimental: as §3

[13] = tested on: VanS-VanRB strain; assay: Vancomycin MIC, microdilution; type: cell-based; conditions: Enterococcus faecalis; vanSB replaced by vanS in V583
Experimental: as §3

[14] = tested on: E. faecalis V583; assay: Checkerboard broth microdilution; type: cell-based; conditions: Enterococcus faecalis, control, vancomycin alone
Source text: Since sviceucin and siamycin I inhibit signal transduction of the FsrAC TCS in vivo, we next wondered if the lasso peptides would also target other TCSs. In E. faecalis, the VanRS TCS regulates resistance to vancomycin, an antibiotic of clinical importance. The minimum inhibitory concentrations (MICs) of this antibiotic in combination with the lasso peptides were thus determined for clinically relevant Enterococcus and S. aureus strains from our in-house collection. The chosen concentrations of the peptides (2 μM of siamycin I and 10 μM of sviceucin) are the lowest subinhibitory concentrations that allow the maximum synergy with vancomycin, as determined by the checkerboard method on the E. faecalis V583 strain (Table S1).

[15] = tested on: E. faecalis V583; assay: Vancomycin MIC with nanoemulsions; type: cell-based, Enterococcus faecalis; conditions: with blank NEs
Experimental: The formulation of the nanoemulsions was based on the spontaneous nanoemulsification method previously described by Séguy et al.[41] and transposed to lasso peptides. The present nanoemulsions were developed from anhydrous mixtures composed of excipients already described in the European Pharmacopeia (World Health Organization, 2018) and already proven to be hemocompatible on human whole blood. Monodisperse nanoemulsions could be formulated at a drug payload of 400 μg/mL for siamycin I. At these concentrations, the drug added to the anhydrous mixture during the formulation process appeared to be completely dissolved. After the addition of the aqueous phase, a homogeneous colloidal suspension was observed. The nanoemulsions were characterized in terms of granulometric and physicochemical properties (Table S6). The hydrodynamic diameter, zeta potential, and PDI were not changed relative to the blank nanoemulsions, remaining lower than 0.25, indicating the presence of a monodispersed population.

[16] = Enterococcus faecalis, read-out: Vancomycin MIC

With CN[C@H](CC(C)C)C(=O)N[C@H]1C(=O)N[C@@H](CC(N)=O)C(=O)N[C@H]2C(=O)N[C@H]3C(=O)N[C@H](C(=O)N[C@H](C(=O)O)c4cc(O)cc(O)c4-c4cc3ccc4O)[C@H](O)c3ccc(c(Cl)c3)Oc3cc2cc(c3O[C@@H]2O[C@H](CO)[C@@H](O)[C@H](O)[C@H]2O[C@H]2C[C@](C)(N)[C@H](O)[C@H](C)O2)Oc2ccc(cc2Cl)[C@H]1O [Vancomycin] the MIC ([1]; Enterococcus faecalis, V583, read-out: Vancomycin MIC) was 32 µg/mL (≈ 22.1 µM), the “Vancomycin MIC” value ([1]; vancomycin alone (control, 1:1 water:methanol formulation), GM17, 5 × 10^5 CFU/mL, VanB) was 32 µg/mL and the MIC [2] was 64 µg/mL (≈ 44.2 µM). The MIC [3] was 128 µg/mL (≈ 88.3 µM), the MIC [4] was over 512 µg/mL and the MIC [5] was 64 µg/mL (≈ 44.2 µM). The MIC [6, 16] was 128 µg/mL (≈ 88.3 µM), the “fold increase of the MIC of vancomycin vs wild-type” value ([6]; vancomycin alone) was 4 fold and the “Vancomycin MIC” value ([6]; {}) was 128 µg/mL. The MIC [7, 16] was 128 µg/mL (≈ 88.3 µM), the “fold increase of the MIC of vancomycin vs wild-type” value ([7]; vancomycin alone) was 4 fold and the “Vancomycin MIC” value ([7]; {}) was 128 µg/mL. For the same compound, the MIC [8] was 2 µg/mL (≈ 1.38 µM), the MIC [9] was 128 µg/mL (≈ 88.3 µM) and the MIC [10] was 32 µg/mL (≈ 22.1 µM). For the same compound, the MIC [11] was 32 µg/mL (≈ 22.1 µM), the MIC [12] was 32 µg/mL (≈ 22.1 µM) and the MIC [13] was 2 µg/mL (≈ 1.38 µM). The MIC [14] was 32 µg/mL and the “Vancomycin MIC” value [15] was 32.
